Data on two compounds can be found in BindingDB's records for doi:10.1016/j.ejmech.2018.06.047 (University of Oulu, 2018).

A word on the IC50: it is the concentration that gives 50% inhibition. The low end stands for higher potency, the high end for lower potency.

Molecules are shown by their SMILES.

The nature of the experiment: Inhibition of ARTD10 (unknown origin)-induced cell death expressed in human HeLa cells after 10 days by methylene blue staining based colony formation assay.

For `NC(=O)c1ccc(OCc2ccccc2F)cc1`, the IC50 came out at 2000 nM. This lies in the single-digit micromolar range. The compound `NC(=O)c1ccc(Oc2ccc(C=O)cc2)cc1` registered an IC50 of 1000 nM.
